Results published in publication PMC10536004, “Gallation and B-Ring Dihydroxylation Increase Green Tea Catechin Residence Time in Plasma by Differentially Affecting Tissue-Specific Trafficking: Compartmental Model of Catechin Kinetics in Healthy Adults” (Nutrients, 2023).
Read-outs that look alike come from different tables or passages of the source.

How the values were obtained:
[1] = tested on: nonalcoholic steatohepatitis; design: method as in PMID 32688217; details: obese mice, equal doses in diet; cited from earlier work
[2] = Compartmental model of catechin kinetics from plasma and urine pharmacokinetic data after ingestion of GTE confection; assay type: in vivo, healthy adults
Description: Data for the present study were obtained from our prior investigation of the pharmacokinetics of green tea polyphenols in healthy adults. The study protocol was approved by the Biomedical Institutional Review Board at Ohio State University (#2017H0246) and registered at ClinicalTrials.gov (NCT03413735). In brief, 19 healthy adults (10 males and 9 females; 27 ± 2 y; 22 ± 0 kg/m^2) who were normotensive (systolic blood pressure, 112.1 ± 2.3 mmHg and diastolic blood pressure, 72.5 ± 1.6 mmHg) normoglycemic (fasting glucose, 92.3 ± 1.8 mg/dL) and normolipidemic (total cholesterol, 181.1 ± 7.8 mg/dL and triglyceride 61.7 ± 7.5 mg/dL) completed the study in the Columbus, Ohio area. Participants were non-smokers, non-users of dietary supplements, non-regular tea drinkers (<2 cups/wk), consumed <3 alcoholic drinks/d, non-pregnant or non-lactating, not using any medications or antibiotics, and had no history of gastrointestinal disorders or surgeries.
Complete details of the pharmacokinetic study were reported in [24]. In brief, participants abstained from polyphenol-rich foods for 3 d. In the fasting state (10–12 h) on day 4, participants voided their bladder, and a catheter was inserted into the antecubital vein to collect blood samples at baseline (0 h) and at 0.25, 0.5, 1, 2, 3, 5, 8, 10, and 12 h post-ingestion of a confection formulated with catechin-rich GTE. Urine was collected in timed intervals from 0–4, 4–8, 8–12, and 12–24 h (Figure 2). Participants received standardized meals at 4 h (11:00), 6 h (13:00) and 12 h (19:00) following confection ingestion. Snacks (e.g., pretzels, crackers) were also provided between 13:00–19:00. All foods were devoid of polyphenols and provided to participants in a eucaloric manner based on estimated energy requirements using the Harris–Benedict formula [25]. Controlled meals were designed to provide 48–55% of energy from carbohydrates, 15–20% from proteins, and 20–35% from fats. No additional foods or beverages, except water, were consumed by participants during the 24 h trial period.
GTE confections were developed as an alternative delivery system for catechins because Americans prefer catechin-deplete black tea over catechin-rich green tea. Confections were prepared in-house and formulated with 84.5% water, 2% sucrose, 6% gelatin, 0.5% citric acid, 6% lime-flavored gelatin, and 1% decaffeinated GTE powder. Confections were prepared within 24 h of the participants’ pharmacokinetics trial and stored at 4 °C. Each participant ingested 2 confections (each 25 g and ~2.5″ cubed), which contained 0.5 g GTE (Sunphenon 90 LB, Taiyo International, Inc., Minneapolis, MN, USA) to provide 445 mg total catechins (290 mg EGCG, 87 mg EGC, 39 mg EC, 28 mg ECG). The catechin content of all confections was confirmed by HPLC analysis. Based on brewed green tea (250 mL prepared with 2.2 g of dry tea leaves) containing ~180 mg total catechins, GTE at 0.5 g approximates 2.5 cups of green tea.
Biospecimen handling and preservation of catechins concentrations in plasma and urine were described. In brief, venous plasma was collected in heparinized tubes, while urine was collected in sterilized containers. Samples were preserved by adding a solution of acetic acid, ascorbic acid, and EDTA, snap-frozen in liquid nitrogen and stored at −80 °C until analyzed. Plasma and urinary catechins (EGCG, EGC, ECG, EC) were analyzed by LC-MS following enzymatic hydrolysis and extraction as reported.
Tissue-specific kinetics of each catechin were determined by model-based compartmental analysis using the Windows version of Simulation, Analysis, and Modeling software (WinSAAM version 3.0.8). The observed data were expressed as a fraction of the ingested dose, i.e., the mass of catechins measured in plasma/urine at specified times divided by the mass of the ingested catechin dose. […]

[3] = in vivo; cited from earlier work
Caco-2 monolayer = details: cited from earlier work
pancreatic tumor cells = details: cited from earlier work
[4] = in vitro; cited from earlier work
[5] = alkaline pH; cited from earlier work
[6] = 0.5 g GTE confection, n = 19, two-way ANOVA with Tukey's post-hoc
[7] = fractional catabolic rate from plasma, not statistically significant

Row | mean FCR higher in females compared with males [2, 7] | Compound | alleviating pathological evidence of nonalcoholic steatohepatitis [1] | fractional catabolic rate (FCR), fraction of compound lost irreversibly from plasma per min, rank order [2, 6] | plasma residence time, rank order [2, 6] | fractional transfer rate from plasma to extravascular tissues, rank order ([2]; n = 19) | fractional transfer rate from plasma to kidneys, rank order ([2]; n = 19) | fractional transfer rate from the liver to plasma, rank order ([2]; n = 19) | fraction present in human plasma following oral administration of green tea [3] | basal-to-apical transport of catechins, rank order (Caco-2 monolayer; Caco-2 cell model) | anti-inflammatory activity compared with EGCG (pancreatic tumor cells) | also measured
1 |  | Oc1cc(O)c2c(c1)OC(c1ccc(O)c(O)c1)C(O)C2 (single isomer, unassigned; (+)) [catechin, (+)-catechin] | effective |  |  |  |  |  |  |  |  | 
2 | 9% | Oc1cc(O)c2c(c1)O[C@H](c1ccc(O)c(O)c1)[C@H](O)C2 [EC, epicatechin] |  | EGC > EGCG = EC > ECG | ECG > EC = EGCG > EGC | EGC > EGCG > EC > ECG | EGC = EC > EGCG = ECG | EGC > EC > EGCG = ECG | 1.1% | EC > EGC > ECG ≈ EGCG |  | 
3 |  | catechin gallate [reference compound] |  |  |  |  |  |  |  |  | superior | 
4 |  | Oc1cc(O)c2c(c1)O[C@H](c1cc(O)c(O)c(O)c1)[C@H](O)C2 [EGC, epigallocatechin] |  |  |  |  |  |  | 0.58% |  |  | mean FCR higher in females compared with males ([2]; both, human, in vivo): 13%; fractional catabolic rate (FCR), fraction of compound lost irreversibly from plasma per min, rank order ([2]; in vivo): EGC > EGCG = EC > ECG; fractional transfer rate from plasma to extravascular tissues, rank order ([2]; in vivo): EGC > EGCG > EC > ECG; fractional transfer rate from plasma to kidneys, rank order ([2]; in vivo): EGC = EC > EGCG = ECG; fractional transfer rate from the liver to plasma, rank order ([2]; in vivo): EGC > EC > EGCG = ECG; plasma residence time, rank order ([2]; in vivo): ECG > EC = EGCG > EGC; basal-to-apical transport of catechins, rank order (Caco-2 monolayer): EC > EGC > ECG ≈ EGCG
5 | 33% | O=C(O[C@@H]1Cc2c(O)cc(O)cc2O[C@@H]1c1cc(O)c(O)c(O)c1)c1cc(O)c(O)c(O)c1 [EGCG, epigallocatechin gallate] | more potent | EGC > EGCG = EC > ECG | ECG > EC = EGCG > EGC | EGC > EGCG > EC > ECG | EGC = EC > EGCG = ECG | EGC > EC > EGCG = ECG | 0.16% | EC > EGC > ECG ≈ EGCG |  | free radical scavenging activity [4]: superior; loss by degradation in alkaline environment of the small intestine compared with ECG and EC [5]: greater loss
6 | 5% | O=C(O[C@@H]1Cc2c(O)cc(O)cc2O[C@@H]1c1ccc(O)c(O)c1)c1cc(O)c(O)c(O)c1 [ECG, epicatechin gallate] |  | EGC > EGCG = EC > ECG | ECG > EC = EGCG > EGC | EGC > EGCG > EC > ECG | EGC = EC > EGCG = ECG | EGC > EC > EGCG = ECG |  | EC > EGC > ECG ≈ EGCG | superior | fractional transfer from the small intestine to the liver ([2]; ECG compared with EC): slower; fractional transfer from kidneys to urine ([2]; ECG vs. EC): slower; fractional transfer rate from the upper gastrointestinal tract to the small intestine ([2]; compared with other catechins): faster
